Experimental data as given in publication PMC3878827, “Synthesis and biological characterisation of ^18F-SIG343 and ^18F-SIG353, novel and high selectivity σ2 radiotracers, for tumour imaging properties” (EJNMMI Research, 2013).

Experiments:
[1] = biological target: T1, σ1 receptors (Rattus norvegicus, UniProt Q9R0C9); experiment: Radioreceptor binding assay, σ1 (3H-(+)-pentazocine, rat brain membrane); details: determined by ANSTO LifeSciences, read-out: Affinity σ1 (Ki)
T1 construct: aliquots of diluted rat brain membrane (300 μg of protein); from tissue; host or cells: male Sprague-Dawley rat brain membrane homogenate
Method: (§1) The test compounds were solubilised in DMSO and diluted in 50 mmol/L Tris-HCl (pH 8.0). Membrane homogenates were prepared from male Sprague-Dawley rat brains as previously described. The binding of σ ligands to σ1 and σ2 receptors was determined according to literature methods with minor modification. Briefly, the percentage of inhibition was determined by incubating, in triplicate, aliquots of diluted rat brain membrane (300 μg of protein) with 10^-11 to 10^-5 mol/L concentrations of the studied drugs in 50 mmol/L Tris-HCl (pH 8.0) with ^3H-(+)-pentazocine (3 nmol/L) at 37°C for 2.5 h for σ1 receptors or with ^3H-DTG (10 nmol/L) and (+)-pentazocine (1 μmol/L) at 25°C for 1.5 h for σ2 receptors. […] After incubation, the reaction was terminated by rapid filtration using a Brandel 48-well cell harvester (Brandel, Gaithersburg, MD, USA) over Whatman GF/B glass fibre filters that were soaked in a solution of 0.5% polyethyleneimine at 4°C for at least 2 h before use. […] The filters were collected and the amount of bound radioactivity was measured using a β-scintillation counter (Tri-Carb 2100TR, Packard Instrument Co., Downers Grove, IL, USA). The percentage inhibition of the studied drugs, at concentrations of 10^-5 and 10^-7 mol/L, was also determined for the cross activity at a number of other neuroreceptors (Caliper LifeSciences, MA, USA). […]

[2] = biological target: T2, σ2 receptors (Rattus norvegicus, UniProt Q5U3Y7); experiment: Radioreceptor binding assay, σ2 (3H-DTG + (+)-pentazocine, rat brain membrane); details: for Ki: rat brain membrane, 3H-DTG with (+)-pentazocine, determined by ANSTO LifeSciences, read-out: Affinity σ2 (Ki); for Selectivity σ2:σ1: ratio of Ki values, Table 2
T2 sequence (Q5U3Y7 1-176): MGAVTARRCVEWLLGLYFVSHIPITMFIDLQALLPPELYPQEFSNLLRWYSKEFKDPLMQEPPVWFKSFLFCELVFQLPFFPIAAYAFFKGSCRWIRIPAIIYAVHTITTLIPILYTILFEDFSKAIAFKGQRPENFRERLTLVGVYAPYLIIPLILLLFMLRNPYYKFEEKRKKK
Method: The test compounds were solubilised in DMSO and diluted in 50 mmol/L Tris-HCl (pH 8.0). Membrane homogenates were prepared from male Sprague-Dawley rat brains as previously described. The binding of σ ligands to σ1 and σ2 receptors was determined according to literature methods with minor modification. Briefly, the percentage of inhibition was determined by incubating, in triplicate, aliquots of diluted rat brain membrane (300 μg of protein) with 10^-11 to 10^-5 mol/L concentrations of the studied drugs in 50 mmol/L Tris-HCl (pH 8.0) with ^3H-(+)-pentazocine (3 nmol/L) at 37°C for 2.5 h for σ1 receptors or with ^3H-DTG (10 nmol/L) and (+)-pentazocine (1 μmol/L) at 25°C for 1.5 h for σ2 receptors. […] After incubation, the reaction was terminated by rapid filtration using a Brandel 48-well cell harvester (Brandel, Gaithersburg, MD, USA) over Whatman GF/B glass fibre filters that were soaked in a solution of 0.5% polyethyleneimine at 4°C for at least 2 h before use. Filters were washed three times with 5 mL of ice-cold wash buffer (50 mmol/L Tris HCl, pH 7.4). The filters were collected and the amount of bound radioactivity was measured using a β-scintillation counter (Tri-Carb 2100TR, Packard Instrument Co., Downers Grove, IL, USA). The percentage inhibition of the studied drugs, at concentrations of 10^-5 and 10^-7 mol/L, was also determined for the cross activity at a number of other neuroreceptors (Caliper LifeSciences, MA, USA). The IC50 values were then converted to apparent Ki values using the Cheng-Prusoff equation and radioligand Kd values.

[3] = biological target: Opioid, non-selective; experiment: Cross activity at neuroreceptors (Caliper LifeSciences): opioid; type: binding; details: determined by Caliper LifeSciences; read-out: Affinity Opioid, non-selective (IC50)
Method: as §1

[4] = biological target: Dopamine, non-selective; experiment: Cross activity at neuroreceptors (Caliper LifeSciences): dopamine; type: binding; details: determined by Caliper LifeSciences; read-out: Affinity Dopamine, non-selective (IC50)
Method: as §1

[5] = biological target: Serotonin, non-selective; experiment: Cross activity at neuroreceptors (Caliper LifeSciences): serotonin; type: binding; details: determined by Caliper LifeSciences; read-out: Affinity Serotonin, non-selective (IC50)
Method: as §1

[6] = biological target: T3, CB1, non-selective (Homo sapiens, UniProt P21554); experiment: Cross activity at neuroreceptors (Caliper LifeSciences): CB1; type: binding; details: determined by Caliper LifeSciences; read-out: Affinity CB1, non-selective (IC50)
T3 construct: Caliper LifeSciences
Method: as §1

[7] = biological target: Muscarinic, non-selective; experiment: Cross activity at neuroreceptors (Caliper LifeSciences): muscarinic; type: binding; details: determined by Caliper LifeSciences; read-out: Affinity Muscarinic, non-selective (IC50)
Method: as §1

[8] = Lipophilicity by RP-HPLC (logP7.5); type: physicochemical; details: logP7.5, phosphate buffer pH 7.5
Method: The lipophilicity of SIG343 and SIG353 were assessed using RP-HPLC by determining the logP7.5 value using literature procedures.

[9] = rats, intravenous bolus; cited from earlier work

T3 sequence (P21554 whole entry): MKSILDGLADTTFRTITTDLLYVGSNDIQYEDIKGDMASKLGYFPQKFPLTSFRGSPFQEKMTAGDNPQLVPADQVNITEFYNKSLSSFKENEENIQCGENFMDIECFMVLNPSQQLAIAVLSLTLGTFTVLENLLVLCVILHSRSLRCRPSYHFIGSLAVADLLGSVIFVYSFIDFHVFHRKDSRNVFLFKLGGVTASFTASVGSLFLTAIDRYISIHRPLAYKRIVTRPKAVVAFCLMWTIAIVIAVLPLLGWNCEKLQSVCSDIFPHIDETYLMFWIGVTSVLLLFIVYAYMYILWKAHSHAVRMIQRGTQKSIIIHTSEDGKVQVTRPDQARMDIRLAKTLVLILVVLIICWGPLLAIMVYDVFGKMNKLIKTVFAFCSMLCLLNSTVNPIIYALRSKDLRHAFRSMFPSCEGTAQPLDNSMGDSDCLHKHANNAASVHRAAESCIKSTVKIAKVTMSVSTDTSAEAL
T1 sequence (Q9R0C9 whole entry): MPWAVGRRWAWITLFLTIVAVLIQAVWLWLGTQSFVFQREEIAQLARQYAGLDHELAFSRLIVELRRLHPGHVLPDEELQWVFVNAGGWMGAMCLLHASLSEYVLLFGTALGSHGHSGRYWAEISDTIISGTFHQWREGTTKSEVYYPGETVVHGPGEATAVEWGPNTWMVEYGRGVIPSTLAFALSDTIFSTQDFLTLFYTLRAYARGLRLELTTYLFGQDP

SMILES | Ki [1] [µM] | Ki [2] [µM] | Selectivity σ2:σ1 [2] | IC50 [3] [µM] | IC50 [4] [µM] | IC50 [5] [µM] | IC50 [6] [µM] | IC50 [7] [µM] | chromatographic logP [8] | Terminal half-life [9] [h]
COc1cc2c(cc1OC)CN(CCCCN1C(=O)c3ccc(F)cc3C1=O)CC2 [SIG343, 2-(4-(6,7-Dimethoxy-3,4-dihydroisoquinolin-2(1H)-yl)butyl)-5-fluoroisoindoline-1,3-dione] | 1.6 | 0.008 | 200 | > 10 | > 10 | > 10 | > 10 | > 10 | 3.11 ± 0.08 | 
COc1cc2c(cc1OC)CN(CCCCCN1C(=O)c3ccc(F)cc3C1=O)CC2 [SIG353, 2-(5-(6,7-Dimethoxy-3,4-dihydroisoquinolin-2(1H)-yl)pentyl)-5-fluoroisoindoline-1,3-dione] | 0.266 | 0.0024 | 110 | > 10 | > 10 | > 10 | > 10 | > 10 | 3.47 ± 0.09 | 
O=C(CCCN1CCC(O)(c2ccc(Cl)cc2)CC1)c1ccc(F)cc1 [haloperidol] |  |  |  |  |  |  |  |  |  | 1.5
